Data: patent US20230167073A1 (Teijin Pharma Limited, priority 2020, published 2023)

What follows are compounds tested against T1, Human TRPC6 (Homo sapiens, UniProt Q9Y210) (assay: Evaluation of TRPC6 channel inhibitory activity (1), FLIPR Calcium 5 Assay Kit, OAG stimulation (Compound Nos. 1-1293)). Settings: Human TRPC6 stably-expressing cells, OAG 30 μM, FLIPR Calcium 5 Assay Kit; read-out: Inhibitory activity (pIC50 class) (converted).
T1 construct: expressed in transfected cells
T1 sequence (Q9Y210 1-931): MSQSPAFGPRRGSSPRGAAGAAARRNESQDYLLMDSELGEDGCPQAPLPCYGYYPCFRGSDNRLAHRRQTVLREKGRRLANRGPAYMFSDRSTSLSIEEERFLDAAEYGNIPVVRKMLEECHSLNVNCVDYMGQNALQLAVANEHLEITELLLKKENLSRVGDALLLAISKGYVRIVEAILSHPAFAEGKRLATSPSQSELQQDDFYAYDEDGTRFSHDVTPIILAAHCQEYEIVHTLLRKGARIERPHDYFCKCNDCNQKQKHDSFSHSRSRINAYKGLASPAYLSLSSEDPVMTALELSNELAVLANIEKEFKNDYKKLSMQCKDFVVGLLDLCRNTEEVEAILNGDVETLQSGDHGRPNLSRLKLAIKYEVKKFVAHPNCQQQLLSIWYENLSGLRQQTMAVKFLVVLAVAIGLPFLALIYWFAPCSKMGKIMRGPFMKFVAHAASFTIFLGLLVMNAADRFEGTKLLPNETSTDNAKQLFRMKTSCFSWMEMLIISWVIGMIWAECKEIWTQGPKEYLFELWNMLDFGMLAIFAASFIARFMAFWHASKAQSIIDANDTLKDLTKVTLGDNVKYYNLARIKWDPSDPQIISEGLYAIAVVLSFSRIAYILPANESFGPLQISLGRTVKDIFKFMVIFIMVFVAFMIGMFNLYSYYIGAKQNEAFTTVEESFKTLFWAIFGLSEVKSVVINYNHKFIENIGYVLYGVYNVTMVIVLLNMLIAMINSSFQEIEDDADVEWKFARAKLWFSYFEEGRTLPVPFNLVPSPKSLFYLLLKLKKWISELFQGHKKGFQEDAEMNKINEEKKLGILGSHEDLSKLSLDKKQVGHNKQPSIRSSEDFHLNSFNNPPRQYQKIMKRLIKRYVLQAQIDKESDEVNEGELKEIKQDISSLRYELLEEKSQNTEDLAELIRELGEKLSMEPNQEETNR
Assay type: cell-based
In short: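 Calcium influx read by FLIPR fluorescence in cells stably expressing human TRPC6, dye-loaded 30 min. Compounds preincubated 20 min, then OAG stimulation at 30 μM final. Inhibition fitted by four-parameter logistic regression to give pIC50, reported as +/++/+++ categories.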
In the case of Cn1nc(C2CC2)cc1Oc1cc(C#N)ccc1-c1ccc(C(N)C(N)=O)cn1 (stereo not drawn) [compound 504, 2-amino-2-[6-[4-cyano-2-(5-cyclopropyl-2-methylpyrazol-3-yl)oxyphenyl]pyridin-3-yl]acetamide], the IC50 is reported as > 1000 nM. Cc1cc(Oc2cc(C#N)ccc2-c2ccc([C@H](O)CN)cn2)cc(N2C[C@@H](C)O[C@@H](C)C2)n1 [compound 505, 4-[5-[(1S)-2-amino-1-hydroxyethyl]pyridin-2-yl]-3-[2-[(2S,6R)-2,6-dimethylmorpholin-4-yl]-6-methylpyridin-4-yl]oxybenzonitrile] was tested, and the IC50 was < 10 nM. Cc1cc(Oc2cc(C#N)ccc2-c2ncc([C@H](O)CN)cn2)cc(N2C[C@@H](C)O[C@@H](C)C2)n1 [compound 506, 4-[5-[(1S)-2-amino-1-hydroxyethyl]pyrimidin-2-yl]-3-[2-[(2S,6R)-2,6-dimethylmorpholin-4-yl]-6-methylpyridin-4-yl]oxybenzonitrile] was tested, and the IC50 was < 10 nM. With Cc1nc(Oc2cc(C#N)ccc2-c2ccc([C@H](O)CN)cn2)cc(N2CCCC2)n1 [compound 507, 4-[5-[(1S)-2-amino-1-hydroxyethyl]pyridin-2-yl]-3-(2-methyl-6-pyrrolidin-1-ylpyrimidin-4-yl)oxybenzonitrile] the IC50 was < 10 nM. Cc1nc(Oc2cc(C#N)ccc2-c2ncc([C@H](O)CN)cn2)cc(N2CCCC2)n1 [compound 508, 4-[5-[(1S)-2-amino-1-hydroxyethyl]pyrimidin-2-yl]-3-(2-methyl-6-pyrrolidin-1-ylpyrimidin-4-yl)oxybenzonitrile] was tested, and the IC50 was < 10 nM. With Cc1nc(Oc2cc(C#N)ccc2-c2ccc([C@H](O)CN)cn2)cc(N2CCCCC2)n1 [compound 509, 4-[5-[(1S)-2-amino-1-hydroxyethyl]pyridin-2-yl]-3-(2-methyl-6-piperidin-1-ylpyrimidin-4-yl)oxybenzonitrile] the IC50 was < 10 nM. In the case of Cc1nc(Oc2cc(C#N)ccc2-c2ncc([C@H](O)CN)cn2)cc(N2CCCCC2)n1 [compound 510, 4-[5-[(1S)-2-amino-1-hydroxyethyl]pyrimidin-2-yl]-3-(2-methyl-6-piperidin-1-ylpyrimidin-4-yl)oxybenzonitrile], the IC50 is reported as < 10 nM. Cn1nc(C2CC2)cc1Oc1cc(C#N)ccc1-c1ccc(C(N)c2nnn[nH]2)cn1 (stereo not drawn) [compound 511, 4-[5-[amino(1H-tetrazol-5-yl)methyl]pyridin-2-yl]-3-(5-cyclopropyl-2-methylpyrazol-3-yl)oxybenzonitrile] was tested, and the IC50 was > 1000 nM. Cn1nc(-c2ncccn2)cc1Oc1cc(C#N)ccc1-c1ccc(CCN)cn1 [compound 512, 4-[5-(2-aminoethyl)pyridin-2-yl]-3-(2-methyl-5-pyrimidin-2-ylpyrazol-3-yl)oxybenzonitrile] gave an IC50 of 10 to 1000 nM. For COc1cccnc1-c1cc(Oc2cc(C#N)ccc2-c2ccc([C@H](O)CN)cn2)cc(C)n1 [compound 513, 4-[5-[(1S)-2-amino-1-hydroxyethyl]pyridin-2-yl]-3-[2-(3-methoxypyridin-2-yl)-6-methylpyridin-4-yl]oxybenzonitrile], the IC50 was 10 to 1000 nM. Work on Cn1nc(C2CCOCC2)cc1Oc1cc(C#N)ccc1-c1ccc(C(N)CO)cn1 (stereo not drawn) [compound 514, 4-[5-(1-amino-2-hydroxyethyl)pyridin-2-yl]-3-[2-methyl-5-(oxan-4-yl)pyrazol-3-yl]oxybenzonitrile] yielded an IC50 of 10 to 1000 nM. For Cn1nc(C2CC2)cc1Oc1cc(C#N)ccc1-c1cccn2c(CN)nnc12 [compound 515, 4-[3-(aminomethyl)-[1,2,4]triazolo[4,3-a]pyridin-8-yl]-3-(5-cyclopropyl-2-methylpyrazol-3-yl)oxybenzonitrile], the IC50 was 10 to 1000 nM. Cn1nc(-c2ccccc2)cc1Oc1cc(C#N)ccc1-c1ccc(C(N)C(N)=O)cn1 (stereo not drawn) [compound 516, 2-amino-2-[6-[4-cyano-2-(2-methyl-5-phenylpyrazol-3-yl)oxyphenyl]pyridin-3-yl]acetamide] was tested, and the IC50 was > 1000 nM. In the case of Cc1cc(Oc2cc(C#N)ccc2-c2ccc([C@@H](O)CN)cn2)cc(N2CCOCC2)n1 [compound 517, 4-[5-[(1R)-2-amino-1-hydroxyethyl]pyridin-2-yl]-3-(2-methyl-6-morpholin-4-ylpyridin-4-yl)oxybenzonitrile], the IC50 is reported as < 10 nM. Cn1nc(C2CC2)cc1Oc1cc(C#N)ccc1-c1cc(C(O)CN)c(Cl)cn1 (stereo not drawn) [compound 518, 4-[4-(2-amino-1-hydroxyethyl)-5-chloropyridin-2-yl]-3-(5-cyclopropyl-2-methylpyrazol-3-yl)oxybenzonitrile] gave an IC50 of 10 to 1000 nM. Work on Cn1nc(C2CC2)cc1Oc1cc(C#N)ccc1-c1cc(C(O)CN)ccn1 (stereo not drawn) [compound 519, 4-[4-(2-amino-1-hydroxyethyl)pyridin-2-yl]-3-(5-cyclopropyl-2-methylpyrazol-3-yl)oxybenzonitrile] yielded an IC50 of 10 to 1000 nM. With Cn1nc(C2CC2)cc1Oc1cc(C#N)ccc1-c1ncc(CN)s1 [compound 520, 4-[5-(aminomethyl)-1,3-thiazol-2-yl]-3-(5-cyclopropyl-2-methylpyrazol-3-yl)oxybenzonitrile] the IC50 was 10 to 1000 nM. With Cn1nc(-c2ccccn2)cc1Oc1cc(C#N)ccc1-c1ncc(CN)s1 [compound 521, 4-[5-(aminomethyl)-1,3-thiazol-2-yl]-3-(2-methyl-5-pyridin-2-ylpyrazol-3-yl)oxybenzonitrile] the IC50 was < 10 nM. For Cn1nc(-c2ccccn2)cc1Oc1cc(C#N)ccc1-c1ccc(CN)n2ccnc12 [compound 522, 4-[5-(aminomethyl)imidazo[1,2-a]pyridin-8-yl]-3-(2-methyl-5-pyridin-2-ylpyrazol-3-yl)oxybenzonitrile], the IC50 was < 10 nM. Work on Cc1nc(Oc2cc(C#N)ccc2-c2ccc([C@H](O)CN)cn2)cc(N2C[C@@H](C)O[C@@H](C)C2)n1 [compound 523, 4-[5-[(1S)-2-amino-1-hydroxyethyl]pyridin-2-yl]-3-[6-[(2S,6R)-2,6-dimethylmorpholin-4-yl]-2-methylpyrimidin-4-yl]oxybenzonitrile] yielded an IC50 of 10 to 1000 nM. Compound Cc1nc(Oc2cc(C#N)ccc2-c2ncc([C@H](O)CN)cn2)cc(N2C[C@@H](C)O[C@@H](C)C2)n1 [compound 524, 4-[5-[(1S)-2-amino-1-hydroxyethyl]pyrimidin-2-yl]-3-[6-[(2S,6R)-2,6-dimethylmorpholin-4-yl]-2-methylpyrimidin-4-yl]oxybenzonitrile] has an IC50 of 10 to 1000 nM. For Cc1nc(Oc2cc(C#N)ccc2-c2ccc([C@H](O)CN)cn2)cc(-c2ccccc2)n1 [compound 525, 4-[5-[(1S)-2-amino-1-hydroxyethyl]pyridin-2-yl]-3-(2-methyl-6-phenylpyrimidin-4-yl)oxybenzonitrile], the IC50 was < 10 nM. For Cc1nc(Oc2cc(C#N)ccc2-c2ncc([C@H](O)CN)cn2)cc(-c2ccccc2)n1 [compound 526, 4-[5-[(1S)-2-amino-1-hydroxyethyl]pyrimidin-2-yl]-3-(2-methyl-6-phenylpyrimidin-4-yl)oxybenzonitrile], the IC50 was < 10 nM. Cc1cc(Oc2cc(C#N)ccc2-c2ccc([C@H](O)CN)cn2)cc(N2C[C@@H]3C[C@H]2CO3)n1 [compound 527, 4-[5-[(1S)-2-amino-1-hydroxyethyl]pyridin-2-yl]-3-[2-methyl-6-[(1S,4S)-2-oxa-5-azabicyclo[2.2.1]heptan-5-yl]pyridin-4-yl]oxybenzonitrile] was tested, and the IC50 was < 10 nM.
